Experimental data: publication PMC9846164, “Oral administration of VDAC1-derived small molecule peptides increases circulating testosterone levels in male rats” (Frontiers in Endocrinology, 2023)
Entries after “also recorded” stand apart in the source; their conditions may differ. Square brackets hold non-standard residues; d marks the D form. Peptide text beside a SMILES is read from it.

Columns and labels:
[1] = Peptide stability in plasma; format: in vitro ADME; conditions: 4 µM peptide (KVSQ 12.5 µM) in 100 µl Brown-Norway rat plasma, 37°C, 1-120 minutes, methanol crash, LC-MS/MS SRM, % of 1 min level, N=3 mean ± SEM, Figure 4J
Procedure: For peptide stability experiments, plasma from Brown-Norway rats aged 90-140 days was collected and stored at -20°C until further use. The plasma was thawed, spun at 12,000 RPM for 10 min, and kept at 4°C. 4 μM of the various peptides were incubated with 100 μL of plasma that was warmed at 37°C for 10 min before use. After 1, 15, 30, 60, 90 or 120 minutes, the plasma/peptide samples were crashed with 300 µL of 100% methanol, spun at 14,000 RPM for 10 min, and the supernatant collected. The methanol in the supernatant was evaporated and the samples were re-extracted. The final pellet was solubilized in 5 μL methanol followed by the addition of 100 μL of sterile double distilled water. The extracted samples were transferred to plastic tubes and placed in the autoloader of the mass spectrometer.
(§1) The analytical instrumentation consisted of a Thermo-Scientific ISQ Quantiva Triple Quadrupole Mass Spectrometer (QQQ), incorporating a heated electrospray ionization (HESI) source, and a Thermo-Scientific UltiMate™ 3000 UHPLC system (including, UltiMate™ 3000 RS autosampler). Analytical conditions were developed using a reference standard in a solution containing 5 µM of the corresponding peptide. The chromatography was resolved by isocratic elution of a binary solvent system incorporating (A) 0.1% Formic Acid (aq) and (B) ACN + 0.1% FA and using an Agilent Eclipse Plus™ C18 analytical column (100mm X 2.1mm ID, 1.8 µm particle). A 5µL injection volume and solvent flow rate of 150 µL/min were used. The MS/MS acquisition time was 7 min and total run time was 8.3 min/injection. The triple Quadrupole MS/MS instrumentation conditions were as follows: the HESI source voltage was 3200 V, the sheath gas […], auxilirary gas 20 L/min, sweep gas 2.0 L/min, the ion transfer temperature was 350°C, the vaporizer temperature was 350°C, the CID gas was 1.5 (mTorr) and the dwell time was 100 msec. The Q1 Resolution (FWHM) was 0.4 (unitless) and the Q3 resolution (FWHM) was 0.7 (unitless). The instrument ran in a selected reaction monitoring (SRM), positive ion detection mode at various collision energies (CE) for the following mass transitions: […]

[2] = RdVTQ stability on storage (mass-spec area under the curve); format: physicochemical; conditions: fresh vs in distilled water at 37°C for 7 - 28 days, freeze/thaw, stored at -20°C; Figure 5F
Procedure: as §1

[3] = system: Brown-Norway rats; assay: Oral pharmacokinetics after single oral dose; format: in vivo, rat; conditions: single oral dose 10 mg in 1 ml; protease inhibitor cocktail in tubes for KVSQ and RVTQ; LC-MS/MS
Procedure: (§2) For all oral experiments, administration via gavage began between 8:30-8:50 am with a 3-minute delay between each rat. Animals used for pharmacokinetic studies were fasted for 4 hrs before starting gavage at 1 pm with a 3-minute delay between each rat.
(§3) For oral pharmacokinetic experiments, jugular blood samples were collected following a single oral dose of 10 mg peptide in 1 ml of vehicle after 5, 15, 30, 45, 60, 90, and 120 minutes. Protein inhibitor cocktail (ROCHE, cOmplete protease inhibitors, Cat# 11697498001), which was added into the EDTA collection tubes, was used for KVSQ and RVTQ peptides. Plasma was immediately extracted, and 100 μL of plasma were crashed with 300 µL of 100% methanol, spun at 14,000 RPM for 10 min, and the supernatant harvested. Re-extraction of the precipitant and solubilization of the pellet were as described above.
as §1, with “(unitless).” for “(unitless). The instrument ran in a selected reaction monitoring (SRM), positive ion detection mode at various collision energies (CE) for the following mass transitions:”

[4] = system: Brown-Norway rats; assay: Oral gavage of peptides; plasma testosterone and corticosterone; format: in vivo, rat; conditions: ~10 µg/kg oral, 2 hrs after gavage
Procedure: All peptides were dissolved in molecular grade, sterile double distilled water to obtain a 1 mM stock solution and stored at -20°C. Peptides used for oral screenings were prepared from 1 mM peptide stock and diluted in sterile tap water in a total volume of 1 ml.
All samples were measured in duplicate according to each of the manufacturer’s instructions. Serum, plasma, or intratesticular fluid samples were diluted until controls fitted the middle of the standard curve used.

[5] = Oral pharmacokinetics after single oral dose; format: in vivo, rat; conditions: Brown-Norway, rat; single oral dose 10 mg peptide in 1 ml, fasted 4 hrs, jugular plasma 5-120 minutes, LC-MS/MS, N=4 in two rounds, Figure 4K; read-out: time to peak concentration in blood (converted)
Procedure: as §2, §3
as §1, with “(unitless).” for “(unitless). The instrument ran in a selected reaction monitoring (SRM), positive ion detection mode at various collision energies (CE) for the following mass transitions:”

SMILES | half-life in plasma (rank order) [1] | also measured
CC(C)[C@@H](NC(=O)[C@@H](N)CCCNC(=N)N)C(=O)N[C@H](C(=O)N[C@@H](CCC(N)=O)C(=O)O)[C@@H](C)O [RdVTQ] (H-R[dV]TQ-OH) | Ac-RITQdS-CONH2 > RdVTQ > Ac-RdITQ-CONH2 > RITQ > RVTQ > KVSQ | stability (area under the curve by mass-spec) [2]: highly stable
CC(C)[C@H](NC(=O)[C@@H](N)CCCCN)C(=O)N[C@@H](CO)C(=O)N[C@@H](CCC(N)=O)C(=O)O [KVSQ] (H-KVSQ-OH) | rapid degradation; also recorded: Ac-RITQdS-CONH2 > RdVTQ > Ac-RdITQ-CONH2 > RITQ > RVTQ > KVSQ | detection in rat plasma after oral dose [3]: not detected
CC[C@@H](C)[C@@H](NC(=O)[C@H](CCCNC(=N)N)NC(C)=O)C(=O)N[C@H](C(=O)N[C@@H](CCC(N)=O)C(N)=O)[C@@H](C)O [Ac-RdITQ-CONH2] (Ac-R[dI]TQ-NH2) | Ac-RITQdS-CONH2 > RdVTQ > Ac-RdITQ-CONH2 > RITQ > RVTQ > KVSQ | 
CC[C@@H](C)[C@@H](NC(=O)[C@H](CCCCN)NC(C)=O)C(=O)N[C@H](C(=O)N[C@@H](CCC(N)=O)C(N)=O)[C@@H](C)O [Ac-KdITQ-CONH2] (Ac-K[dI]TQ-NH2) |  | average testosterone levels at ~10 µg/kg [4]: increased, although not significantly
CC[C@H](C)[C@H](NC(=O)[C@H](CCCNC(=N)N)NC(C)=O)C(=O)N[C@H](C(=O)N[C@@H](CCC(N)=O)C(=O)N[C@H](CO)C(N)=O)[C@@H](C)O [Ac-RITQdS-CONH2] (Ac-RITQ[dS]-NH2) | Ac-RITQdS-CONH2 > RdVTQ > Ac-RdITQ-CONH2 > RITQ > RVTQ > KVSQ | Tmax [5]: ~15 min
CC(C)[C@H](NC(=O)[C@@H](N)CCCNC(=N)N)C(=O)N[C@H](C(=O)N[C@@H](CCC(N)=O)C(=O)O)[C@@H](C)O [RVTQ] (H-RVTQ-OH) | Ac-RITQdS-CONH2 > RdVTQ > Ac-RdITQ-CONH2 > RITQ > RVTQ > KVSQ | detection in rat plasma after oral dose [3]: not detected
CC[C@H](C)[C@H](NC(=O)[C@@H](N)CCCNC(=N)N)C(=O)N[C@H](C(=O)N[C@@H](CCC(N)=O)C(=O)O)[C@@H](C)O [RITQ] (H-RITQ-OH) | Ac-RITQdS-CONH2 > RdVTQ > Ac-RdITQ-CONH2 > RITQ > RVTQ > KVSQ | 
